Test [1] deals with RAW264.7 cells. The test is described as follows: Inflammatory cytokine mRNA expression (quantitative RT-PCR) in RAW264.7 cells. The format is cell-based, mouse. The method, then: (§1) RAW264.7 cells were a gift from Jason A. Wertheim MD, PhD. HepG2 and HEK293T cells were obtained from ATCC. RAW264.7, HEK293T, and HepG2 cells were cultured in Dulbecco's Modified Eagle's Medium (DMEM) (Corning) supplemented with 10% FBS (Atlanta Biologicals), 2 mM glutamine (HyClone), and 1 mM sodium pyruvate (Corning). […]
(§2) RNA was isolated from cells or tissues using RNA-STAT60 (Teltest) followed by chloroform extraction and precipitation. Reverse transcription was carried out using qScript cDNA Synthesis Kit (Quanta Bio). The resulting cDNA was amplified quantitatively using PerfeCTa SYBR Green Mix (Quanta Bio) on a 7500 Fast Real-time PCR System (Applied Biosystems). The relative gene expression was determined using differences in Ct values between gene of interest and house-keeping control genes. Complete list of primers can be found in Key Reagents Table (Table 1).

For test [2], the system named is BMDMs. The test is described as follows: Inflammatory cytokine mRNA expression (quantitative RT-PCR) in BMDMs. Format: cell-based, mouse. The settings on record: for increase in IL-1β mRNA levels in BMDMs of ΔE1HK1 mice / increase in IL-6 mRNA levels in BMDMs of ΔE1HK1 mice: 4 hr 6AN (1 mM) or OT (50 μM), ±LPS (200 ng/ml); for increase in IL-1β mRNA levels in IFN-γ primed BMDMs of ΔE1HK1 mice / increase in IL-6 mRNA levels in IFN-γ primed BMDMs of ΔE1HK1 mice: 16 hrs IFNγ priming, then 4 hrs LPS (200 ng/ml) ± 6AN (1 mM) or OT (50 μM). The method, then:
(§3) BMDMs were isolated from ΔE1HK1 and WT mice as previously reported (Rodriguez et al., 2019). Briefly, bone marrow was isolated from the tibia and femur of 8-10-week-old mice by puncturing one end of the femur and tibia with a 27g needle and placing it in a 0.5 ml tube with a hole punched in the bottom. The 0.5 ml tube containing the bone was then placed in a 1.75 ml tube and centrifuged at 5,000×g for 3.5 minutes. Bone marrow was then collected into the 1.75 ml tube and resuspend in 1 ml of RBC lysis buffer (abcam) for 1 minute and then transferred to a 50 ml tube with 4 ml RBC lysis buffer and incubated for 4 minutes. Next, 35 ml of PBS was added and centrifuged at 300×g for 5 min and supernatant was then decanted and cell pellet was re-suspended in complete RPMI with 20 ng/ml mCSF (Preprotech). Cells were counted using a hemocytometer and plated in 10 cm tissue culture plates at a density of 3-million cells/plate. Cells were cultured with 20 ng/mL mCSF to induce differentiation into BMDMs. Media was changed every 2 days and BMDMs were harvested by scraping on day 6 and plated in 12 well plates at a density of 1-million cells/well for mRNA extraction experiments. BMDMs were stimulated in the same manner as peritoneal macrophages (LPS dose for BMDMs was 200 ng/ml).
as §2

Test [3] has as its system BMDMs from ΔE1HK1 mice. Briefly: IL-1β ELISA from BMDM media. The format is cell-based, mouse. As to conditions: 4 hrs LPS (200 ng/ml) ± 6AN (1 mM) or OT (50 μM), then 30 min ATP (2.5 mM). As to the method:
as §3, with “Cells were cultured with 20 ng/mL mCSF to induce differentiation into BMDMs. Media was changed every 2 days and BMDMs were harvested by scraping on day 6 and plated in 12 well plates at a density of 1-million cells/well for mRNA extraction experiments. BMDMs were stimulated in the same manner as peritoneal macrophages (LPS dose for BMDMs was 200 ng/ml).” left out
[…] Cell supernatant was collected and analyzed by ELISA according to manufacturer's instructions for IL-1β (DY401), IL-6 (DY406), and TNFα (DY410).
(§4) The following kits were used according to the manufacturer's instructions: Promega NADP/NADPH quantification kit (G9081) and […] (G9071); Glyceraldehyde-3-Phosphate Dehydrogenase Activity Assay kit (abcam); ELISAs for IL-1β (DY401), IL-6 […].
In general terms: ELISA stands for enzyme-linked immunosorbent assay.

Test [4] concerns the target T1, HK1 (Mus musculus, UniProt P17710).
T1 construct: IF of HK1 and mitochondria (MT-Red) imaging in RAW264.7 cells±clotrimazole (CLT) (20 μM); endogenous in cells; the running text says WT BMDMs
T1 sequence (P17710 1-918 isoform P17710-3): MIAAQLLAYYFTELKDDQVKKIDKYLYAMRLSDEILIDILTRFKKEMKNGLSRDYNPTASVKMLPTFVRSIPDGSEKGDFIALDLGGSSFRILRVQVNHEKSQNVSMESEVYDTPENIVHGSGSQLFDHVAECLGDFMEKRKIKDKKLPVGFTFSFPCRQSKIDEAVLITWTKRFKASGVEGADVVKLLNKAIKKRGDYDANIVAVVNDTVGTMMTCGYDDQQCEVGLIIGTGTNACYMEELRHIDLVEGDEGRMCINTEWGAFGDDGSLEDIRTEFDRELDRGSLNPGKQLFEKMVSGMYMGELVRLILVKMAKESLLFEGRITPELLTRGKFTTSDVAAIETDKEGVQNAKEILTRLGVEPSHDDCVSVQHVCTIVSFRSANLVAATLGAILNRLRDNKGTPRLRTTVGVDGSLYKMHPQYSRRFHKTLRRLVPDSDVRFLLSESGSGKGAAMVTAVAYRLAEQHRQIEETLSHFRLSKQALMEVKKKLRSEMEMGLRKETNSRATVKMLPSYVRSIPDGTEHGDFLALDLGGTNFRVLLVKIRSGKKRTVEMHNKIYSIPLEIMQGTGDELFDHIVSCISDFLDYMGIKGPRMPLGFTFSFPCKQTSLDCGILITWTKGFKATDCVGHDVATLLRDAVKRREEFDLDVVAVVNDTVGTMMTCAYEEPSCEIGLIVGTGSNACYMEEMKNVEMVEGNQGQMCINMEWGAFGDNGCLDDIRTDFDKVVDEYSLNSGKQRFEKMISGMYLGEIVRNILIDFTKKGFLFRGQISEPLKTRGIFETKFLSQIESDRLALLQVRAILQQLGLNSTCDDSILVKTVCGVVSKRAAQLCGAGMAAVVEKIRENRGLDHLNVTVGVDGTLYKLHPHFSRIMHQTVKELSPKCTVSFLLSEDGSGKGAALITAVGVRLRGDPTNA
The test is described as follows: Immunofluorescence of HK1 and mitochondria (MT-Red) with colocalization analysis. As to conditions: WT BMDMs; CLT (20 μM). The format is cell-based.
Procedure: Glass-bottom confocal dishes (35 mm; VWR) were coated with 60 nM fibronectin (Sigma-Aldrich), diluted in 0.1% gelatin overnight. Before plating cells, coated confocal dishes were washed twice with PBS. BMDMs (100,000 cells/well), PMs (100,000 cells/well), HepG2 (50,000 cells/well), or RAW264.7 (50,000 cells/well) cells were plated in their respective growth media (complete DMEM or RPMI) and allowed to settle overnight before immunofluorescence (IF) staining. For fixed cell immunofluorescence (IF), cells were plated in 6-well plates (Corning) containing 15 mm glass coverslips (Fisher-Scientific) coated in gelatin and fibronectin. Prior to fixation, growth media was removed and cells were washed 2× with PBS. Cells were fixed with 1 ml of ice-cold 4% formaldehyde for 10 min at room temperature (4% formaldehyde prepared from 16% stock and diluted in PBS). After fixing the cells, plates were washed with PBS 2× and permeabilized with 0.3% triton-X-100 in PBS for 10 min at room temperature. Then, cells were blocked with 10% FBS/PBS for 1 hour at room temperature and subsequently treated with primary antibody diluted in 10% FBS/PBS solution over-night. The next day, secondary antibody was diluted in 10% FBS/PBS at 1:1000 and incubated for 2 hrs at room temperature. […] Images were quantified using ImageJ.

Test [5] addresses T2, GAPDH (Mus musculus, UniProt P16858). The test is described as follows: GAPDH activity normalized to total protein in RAW264.7 cells. The format is cell-based. More on the design: endogenous in cells; host or cells: RAW264.7. The method, then:
as §1, §4

The target in test [6] is T2, GAPDH. The test is described as follows: GAPDH activity normalized to total protein in BMDMs. The format is cell-based. The arrangement: endogenous in cells. As to conditions: ±CGP3466 for 4 hrs. As to the method: as §3, with “Media was changed every 2 days and BMDMs were harvested by scraping on day 6 and plated in 12 well plates at a density of 1-million cells/well for mRNA extraction experiments. BMDMs were stimulated in the same manner as peritoneal macrophages (LPS dose for BMDMs was 200 ng/ml).” left out
as §4

Where [7] appears, read: RAW264.7 cells, koningic acid, LPS.
[8] abbreviates: CLT (20 μM) treated cells vs vehicle treated controls.

T2 sequence (P16858 whole entry): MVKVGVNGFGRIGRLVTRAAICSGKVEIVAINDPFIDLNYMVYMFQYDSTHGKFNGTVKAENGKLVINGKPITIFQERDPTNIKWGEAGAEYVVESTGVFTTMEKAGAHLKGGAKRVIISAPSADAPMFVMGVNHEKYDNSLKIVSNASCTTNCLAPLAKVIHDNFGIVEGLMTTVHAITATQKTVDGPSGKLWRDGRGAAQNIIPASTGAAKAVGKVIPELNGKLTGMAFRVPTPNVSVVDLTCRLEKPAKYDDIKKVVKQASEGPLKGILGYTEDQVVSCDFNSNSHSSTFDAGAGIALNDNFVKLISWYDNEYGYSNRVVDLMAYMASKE

As for `CC(C)[C@H]1CC[C@@]2(CO2)[C@H]2C(=O)OCC(C(=O)O)=C[C@H]12` [koningic acid], in test [1] (setting [7]), the “IL-1β mRNA expression after LPS treatment” value was “increased”, the “IL-6 mRNA expression after LPS treatment” value was “increased” and the “TNFα mRNA expression after LPS treatment” value is recorded as “increased”.

In the case of `Cc1ncc(C[n+]2csc(CCO)c2C)c(=O)[nH]1` [OT, oxythiamine], in test [2], the “increase in IL-1β mRNA levels in BMDMs of ΔE1HK1 mice” value is listed as “abolished”, the “increase in IL-6 mRNA levels in BMDMs of ΔE1HK1 mice” value is on record as “abolished”, the “increase in IL-1β mRNA levels in IFN-γ primed BMDMs of ΔE1HK1 mice” value was “rescued” and the “increase in IL-6 mRNA levels in IFN-γ primed BMDMs of ΔE1HK1 mice” value is recorded as “rescued”. In test [3], the “IL-1β protein release (ELISA), higher release in ΔE1HK1 BMDMs” value was “reversed”.

For `NC(=O)c1ccc(N)nc1` [6AN, 6-aminonicotinamide], in test [2], the “increase in IL-1β mRNA levels in BMDMs of ΔE1HK1 mice” value was “abolished”, the “increase in IL-6 mRNA levels in BMDMs of ΔE1HK1 mice” value is listed as “abolished”, the “increase in IL-1β mRNA levels in IFN-γ primed BMDMs of ΔE1HK1 mice” value was “rescued” and the “increase in IL-6 mRNA levels in IFN-γ primed BMDMs of ΔE1HK1 mice” value is reported as “rescued”. Moreover, in test [3], the “IL-1β protein release (ELISA), higher release in ΔE1HK1 BMDMs” value was “reversed”.

In the case of `Clc1ccccc1C(c1ccccc1)(c1ccccc1)n1ccnc1` [CLT, Clotrimazole], the “HK1 dislocation from the mitochondria” value in test [4] is on record as “significant increase”. The “GAPDH activity in RAW264.7 cells after LPS treatment” value in test [5] (±CLT (20 μM)) was “significant decrease”. Further, in test [1] (setting [8]), the “IL-1β mRNA after LPS stimulation” value is on record as “significant increase”, the “IL-6 mRNA after LPS stimulation” value is recorded as “significant increase” and the “TNFα mRNA after LPS stimulation” value is listed as “significant increase”. In test [1] (CLT (20 μM), no LPS), the “cytokine mRNA levels at baseline” value was “minimal change”. For the same compound, the “production of inflammatory cytokines including IL-1β, TNFα, and IL-6” value in test [1] (macrophages in vitro (summary statement)) is reported as “elevated production”.

For the compound `C#CCN(C)CC1=Cc2ccccc2Oc2ccccc21.O=C(O)/C=C\C(=O)O` [CGP3466, CGP 3466 maleate (CAS 200189-97-5)], the “IL-1β mRNA expression in WT BMDMs” value in test [2] (±LPS and ±CGP3466 for 4 hrs, compared with ΔE1HK1 BMDMs) is recorded as “increased IL-1β mRNA expression in WT BMDMs to the level of the hyper-inflamed ΔE1HK1 BMDMs”. The “difference in GAPDH activity of BMDMs between WT and ΔE1HK1 mice” value in test [6] is listed as “abolished”. For the same compound, in test [5] (LPS (200 ng/ml) ±CGP3466), the “GAPDH activity in RAW264.7 cells” value is listed as “decreased”. Moreover, the “increase in IL-1β mRNA with LPS in RAW264.7 cells” value in test [1] (±LPS (200 ng/ml) and ±CGP3466 for 4 hrs) is on record as “amplified”.

For the origin of these results see patent US20240216336A1, “CLOTRIMAZOLE AS A TREATMENT FOR IMMUNODEFICIENCY DISORDERS” (Northwestern University, priority 2020, published 2024).
